In US20230173082A1, “ANTIBACTERIAL PRODUCTS” (UNIVERSITY OF LINCOLN, priority 2014, published 2023):
“And” between values parts separate entries of the source, which are not always exact repeats. Equal values may be shown once. Read-outs that look alike come from different tables or passages of the source.

Legend:
P. Aeruginosa 27853 = assay: MIC testing (MIC/MBC), broth dilution; type: cell-based; conditions: runs A, B, C, delivery agents with Moenomycin A at 1:2 ratio; for MIC: 24 hours at 37° C.
Method: (§1) • The bacteria were grown in 5 ml of Mueller Hinton Broth overnight at 37° C. • The inhibitor was tested on its own or in conjunction with a cell penetrating peptide (CPP). • When tested with a CPP they were incubated together at room temperature for 1 hour before use. • Delivery agents (Compound 5, Compound 6, and 7) were used at a 1:2 ratio.

E. Coli 25922 = assay: MIC testing (MIC/MBC), broth dilution; type: cell-based; conditions: delivery agents with Moenomycin A at 1:2 ratio
Method: as §1

A. Baumannii 19606 = assay: MIC testing (MIC/MBC), broth dilution; type: cell-based; conditions: runs A, B, C, delivery agents with Moenomycin A at 1:2 ratio; for MIC: 24 hours at 37° C.
Method: as §1

B. Subtilis 2410 = assay: MIC testing (MIC/MBC), broth dilution; type: cell-based; conditions: delivery agents with Moenomycin A at 1:2 ratio
Method: as §1

K. Pneumonia 700603 = assay: MIC testing (MIC/MBC), broth dilution; type: cell-based; conditions: runs A, B, C, delivery agents with Moenomycin A at 1:2 ratio; for MIC: 24 hours at 37° C.
Method: as §1

HeLa cells = assay: In vitro toxicity testing in HeLa cells; type: cell-based
tumor cell line 786-O = assay: In vitro cell viability in tumor cell line 786-O; type: cell-based; conditions: initial in vitro testing
mammalian cells [1] = tested on: mammalian cells
mammalian cells [2] = assay: Mammalian cytotoxicity (cell type not stated)
[3] = Escherichia coli, read-out: MBC
[4] = Escherichia coli, read-out: MIC
[5] = Acinetobacter baumannii, read-out: MIC
[6] = Bacillus subtilis, read-out: MBC
[7] = Bacillus subtilis, read-out: MIC
[8] = Pseudomonas aeruginosa, read-out: MIC
[9] = Pseudomonas aeruginosa, read-out: MBC

SMILES | MIC (P. Aeruginosa 27853) | MIC (E. Coli 25922; [4]) [µg/mL] | MIC (A. Baumannii 19606; [5]) [µg/mL] | MIC (B. Subtilis 2410; [7]) [µg/mL] | MIC (K. Pneumonia 700603) | MIC (P. Aeruginosa 27853; [8]) [µg/mL] | MIC (A. Baumannii 19606) | MBC (P. Aeruginosa 27853) | MBC (E. Coli 25922; [3]) [µg/mL] | MBC (A. Baumannii 19606) | MBC (B. Subtilis 2410; [6]) [µg/mL] | MBC (K. Pneumonia 700603) | MBC (P. Aeruginosa 27853; [9]) [µg/mL] | also measured
CC1(C)S[C@@H]2[C@H](NC(=O)[C@H](N)c3ccccc3)C(=O)N2[C@H]1C(=O)O [Ampicillin, reference compound] | Growth in all wells | 8 | 128 | 128 | Growth in all wells | – | – | Growth in all wells | 8 | Growth in all wells | 256 | Growth in all wells | – | –
CCCCCCCCCCCCCCCCCC(=O)OC(COCC(COC(=O)NCCCN(C)CCCN)OC(=O)NCCCN(C)CCCN)COCC(COC(=O)NCCCN(C)CCCN)OC(=O)NCCCN(C)CCCN (centres unmarked) [Compound 5] | – | 64 | – | 32 | 64 µg/mL | 256 | – | – | 128 | – | 32 | 64 µg/mL | 256 | MIC (K. Pneumonia 700603; Klebsiella pneumoniae, 24 h, read-out: MIC): 128 µg/mL; MBC (K. Pneumonia 700603; Klebsiella pneumoniae, read-out: MBC): 128 µg/mL
C#CC(=O)N[C@@H](CCCNC(=N)N)C(=O)N[C@@H](CCCNC(=N)N)C(=O)N[C@@H](CCCNC(=N)N)C(=O)N[C@@H](CCCNC(=N)N)C(=O)N[C@@H](CCCNC(=N)N)C(=O)N[C@@H](CCCNC(=N)N)C(=O)N[C@@H](CCCNC(=N)N)C(=O)N[C@@H](CCCNC(=N)N)C(N)=O [Compound 8] | – | – | – | – | – | – | – | – | – | – | – | – | – | concentration up to which no toxicity was observed (mammalian cells [1]): up to 110 µg/mL

The next lines start with results.

MIC (P. Aeruginosa 27853) | MIC (E. Coli 25922; [4]) [µg/mL] | MIC (A. Baumannii 19606; [5]) [µg/mL] | MIC (B. Subtilis 2410; [7]) [µg/mL] | MIC (K. Pneumonia 700603) | MIC (P. Aeruginosa 27853; [8]) [µg/mL] | MIC (A. Baumannii 19606) | SMILES | MBC (P. Aeruginosa 27853) | MBC (E. Coli 25922; [3]) [µg/mL] | MBC (A. Baumannii 19606) | MBC (B. Subtilis 2410; [6]) [µg/mL] | MBC (K. Pneumonia 700603) | MBC (P. Aeruginosa 27853; [9]) [µg/mL] | also measured
– | 256 | 256 | 32 | – | 256 | – | CCCCCCCCCCCCCCCCCC(=O)OC(COC(COCC(COC(=O)NCCCN(C)CCCN)OC(=O)NCCCN(C)CCCN)COCC(COC(=O)NCCCN(C)CCCN)OC(=O)NCCCN(C)CCCN)COC(COCC(COC(=O)NCCCN(C)CCCN)OC(=O)NCCCN(C)CCCN)COCC(COC(=O)NCCCN(C)CCCN)OC(=O)NCCCN(C)CCCN (centres unmarked) [Compound 6] | – | – | – | 32 | – | 256 | concentration at which toxic (HeLa cells): 20000 ng/mL; MBC (A. Baumannii 19606; Acinetobacter baumannii, read-out: MBC): 256 µg/mL; effect on cell viability (tumor cell line 786-O): did not affect the cell viability
Growth in all wells | – | – | – | Growth in all wells | – | Growth in all wells | N=C(N)NCCNC(=O)CCN(CCC(=O)NCCNC(=N)N)CCN(CCC(=O)NCCNC(=N)N)CCC(=O)NCCNC(=N)N [Compound 7, 3,3’,3”,3”’-(Ethane-1,2-Divlbis(Azanetrivl)) Tetrakis(N-(2-Guanidinoethyl)Propanamide)] | Growth in all wells | – | Growth in all wells | – | Growth in all wells | – | –
256 µg/mL | – | – | – | 64 µg/mL | – | 4 µg/mL and 8 µg/mL | C=C(C/C=C(\C)CCC=C(C)C)CCC(C)(C)/C=C/CC/C(C)=C/CO[C@@H](COP(=O)(O)O[C@H]1O[C@H](C(N)=O)[C@@](C)(O)[C@H](OC(N)=O)[C@H]1O[C@@H]1O[C@H](CO[C@@H]2O[C@H](CO)[C@@H](O)[C@H](O)[C@H]2O)[C@@H](O[C@@H]2O[C@H](C)[C@@H](O[C@@H]3O[C@H](C(=O)NC4=C(O)CCC4=O)[C@H](O)[C@H](O)[C@H]3O)[C@H](O)[C@H]2NC(C)=O)[C@H](O)[C@H]1NC(C)=O)C(=O)O [Moenomycin A, reference compound] | Growth in all wells | – | 8 µg/mL | – | 128 µg/mL | – | MBC (E. Coli 25922): 128 µg/mL; MIC (E. Coli 25922): 32 µg/mL; MBC (B. Subtilis 2410): Growth in all wells; MIC (B. Subtilis 2410): 256 µg/mL; concentration up to which no toxicity was observed (mammalian cells [2]): up to 10 mg/mL
